Assay results as given in PubChem BioAssay AID248 (DTP/NCI, 2004).
Where “and” joins values, the source holds several entries; their conditions need not be identical. Equal values may be shown once. Toxic doses and inconclusive results are not listed. Cut-off read from the data, not from the text of the source: active = T/C of 150% or more; inactive = T/C below 125%.

Test system: L1210 leukemia ip in BDF1 mice, survival T/C
Test: NCI In Vivo Anticancer Drug Screen. Data for tumor model L1210 Leukemia (intraperitoneal) in B6D2F1 (BDF1) mice
Conditions: endpoint: mean survival time, higher = longer survival
Outline: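 Ratio derived from survival: compound-dosed mice over vehicle-dosed mice, all bearing a transplantable tumor.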

[1] = dose: 100.0 mg/kg/injection, schedule: Q01DX001 (ip), vehicle: Klucel (hydroxypropylcellulose) (HPC)
[2] = dose: 100.0 mg/kg/injection, schedule: Q04DX002 (ip), vehicle: Klucel (hydroxypropylcellulose) (HPC)
[3] = dose: 100.0 mg/kg/injection, schedule: Q04DX003 (ip), vehicle: saline
[4] = dose: 100.0 mg/kg/injection, schedule: Q01DX009 (ip), vehicle: Klucel (hydroxypropylcellulose) (HPC)
[5] = dose: 100.0 mg/kg/injection, schedule: Q04DX003 (ip), vehicle: Klucel (hydroxypropylcellulose) (HPC)
[6] = dose: 200.0 mg/kg/injection, schedule: Q01DX009 (ip), vehicle: Klucel (hydroxypropylcellulose) (HPC)
[7] = dose: 200.0 mg/kg/injection, schedule: Q04DX003 (ip), vehicle: Klucel (hydroxypropylcellulose) (HPC)
[8] = dose: 400.0 mg/kg/injection, schedule: Q01DX009 (ip), vehicle: Klucel (hydroxypropylcellulose) (HPC)
[9] = dose: 400.0 mg/kg/injection, schedule: Q04DX003 (ip), vehicle: Klucel (hydroxypropylcellulose) (HPC)
[10] = dose: 100.0 mg/kg/injection, schedule: Q01DX001 (ip), vehicle: carboxymethylcellulose (CMC)
[11] = dose: 200.0 mg/kg/injection, schedule: Q01DX001 (ip), vehicle: carboxymethylcellulose (CMC)
[12] = dose: 400.0 mg/kg/injection, schedule: Q01DX001 (ip), vehicle: carboxymethylcellulose (CMC)
[13] = dose: 100.0 mg/kg/injection, schedule: Q01DX001 (ip), vehicle: saline

Measured: T/C

Cn1c(N)cc(=O)n(C)c1=O
inactive: [1] 112 % of control | dose: 200.0 mg/kg/injection, schedule: Q01DX001 (ip), vehicle: Klucel (hydroxypropylcellulose) (HPC) 107 % of control | dose: 400.0 mg/kg/injection, schedule: Q01DX001 (ip), vehicle: Klucel (hydroxypropylcellulose) (HPC) 109 % of control

NC(CSS(=O)(=O)O)=NC1CC1
inactive: [2] 94 % of control | dose: 200.0 mg/kg/injection, schedule: Q04DX002 (ip), vehicle: Klucel (hydroxypropylcellulose) (HPC) 91 % of control | dose: 400.0 mg/kg/injection, schedule: Q04DX002 (ip), vehicle: Klucel (hydroxypropylcellulose) (HPC) 109 % of control

CO[Si](OC)(OC)OC
inactive: dose: 25.0 mg/kg/injection, schedule: Q01DX009 (ip), vehicle: saline with Tween-80 92 % of control | dose: 25.0 mg/kg/injection, schedule: Q04DX003 (ip), vehicle: saline 94 % of control | dose: 50.0 mg/kg/injection, schedule: Q01DX009 (ip), vehicle: saline with Tween-80 92 % of control | dose: 50.0 mg/kg/injection, schedule: Q04DX003 (ip), vehicle: saline 108 % of control | dose: 100.0 mg/kg/injection, schedule: Q04DX003 (ip), vehicle: saline with Tween-80 101 % of control | [3] 103 % of control

NC(CS/C(Cl)=C/Cl)C(=O)O (stereo unspecified)
inactive: dose: 1.5 mg/kg/injection, schedule: Q01DX009 (ip), vehicle: saline 101 % of control | dose: 3.0 mg/kg/injection, schedule: Q01DX009 (ip), vehicle: saline 106 % of control | dose: 6.0 mg/kg/injection, schedule: Q01DX009 (ip), vehicle: saline 104 % of control | dose: 12.0 mg/kg/injection, schedule: Q01DX009 (ip), vehicle: saline 98 % of control | dose: 17.0 mg/kg/injection, schedule: Q01DX009 (ip), vehicle: saline 101 % of control | dose: 27.0 mg/kg/injection, schedule: Q01DX009 (ip), vehicle: saline 95 % of control

C=C(C)COC(=O)Nc1cccc(OC(=O)NC)c1
inactive: dose: 100.0 mg/kg/injection, schedule: Q01DX001 (ip), vehicle: saline with Tween-80 97 % of control | dose: 200.0 mg/kg/injection, schedule: Q01DX001 (ip), vehicle: saline with Tween-80 97 % of control | dose: 400.0 mg/kg/injection, schedule: Q01DX001 (ip), vehicle: saline with Tween-80 94 % of control

O=C(O)C1CCOCC1
inactive: [4] 98 % of control | [5] 96 % of control | [6] 95 % of control | [7] 89 % of control | [8] 111 % of control | [9] 88 % of control

c1ccc(-c2cn[nH]c2-c2ccccc2)cc1
inactive: dose: 100.0 mg/kg/injection, schedule: Q04DX002 (ip), vehicle: saline with Tween-80 103 % of control | dose: 200.0 mg/kg/injection, schedule: Q04DX002 (ip), vehicle: saline with Tween-80 100 % of control | dose: 400.0 mg/kg/injection, schedule: Q04DX002 (ip), vehicle: saline with Tween-80 106 % of control

O=NC1C(Cl)C2CC1C1CCCC21 (stereo unspecified)
inactive: [5] 95 % of control | [6] 92 % of control | [7] 92 % of control | [8] 96 % of control | [9] 94 % of control

CCOC(=O)CC(=O)NC(C)(CCOCc1ccccc1)C(=O)OCC (stereo unspecified)
inactive: dose: 50.0 mg/kg/injection, schedule: Q01DX001 (ip), vehicle: carboxymethylcellulose (CMC) 101 % of control | [10] 103 % of control | [11] 110 % of control | [12] 103 % of control

Cc1ccc(N=C2C=CC(=O)O2)cc1
inactive: dose: 100.0 mg/kg/injection, schedule: Q01DX009 (ip), vehicle: saline with Tween-80 98 % of control | dose: 200.0 mg/kg/injection, schedule: Q01DX009 (ip), vehicle: saline with Tween-80 100 % of control | dose: 400.0 mg/kg/injection, schedule: Q01DX009 (ip), vehicle: saline with Tween-80 95 % of control

Cc1ccc(S(=O)(=O)N(CCCc2c(C)nc(N)nc2N)c2ccccc2)cc1
inactive: dose: 100.0 mg/kg/injection, schedule: Q04DX002 (ip), vehicle: saline 110 % of control | dose: 200.0 mg/kg/injection, schedule: Q04DX002 (ip), vehicle: saline 104 % of control | dose: 400.0 mg/kg/injection, schedule: Q04DX002 (ip), vehicle: saline 91 % of control

Cc1nc2c(N)nnc(N)c2nc1C
inactive: dose: 25.0 mg/kg/injection, schedule: Q01DX001 (ip), vehicle: Klucel (hydroxypropylcellulose) (HPC) 97 % of control | dose: 50.0 mg/kg/injection, schedule: Q01DX001 (ip), vehicle: Klucel (hydroxypropylcellulose) (HPC) 93 % of control | [1] 95 % of control | [4] 100 % of control

CC1CCOS(=O)O1 (stereo unspecified)
inactive: dose: 20.0 mg/kg/injection, schedule: Q01DX010 (ip), vehicle: saline 96 % of control and 98 % of control | dose: 24.0 mg/kg/injection, schedule: Q01DX Z (ip), vehicle: carboxymethylcellulose (CMC) 104 % of control and 92 % of control | dose: 36.0 mg/kg/injection, schedule: Q01DX Z (ip), vehicle: carboxymethylcellulose (CMC) 95 % of control and 109 % of control | dose: 40.0 mg/kg/injection, schedule: Q01DX010 (ip), vehicle: saline 95 % of control and 96 % of control | dose: 50.0 mg/kg/injection, schedule: Q01DX001 (ip), vehicle: saline 98 % of control | dose: 54.0 mg/kg/injection, schedule: Q01DX Z (ip), vehicle: carboxymethylcellulose (CMC) 101 % of control and 111 % of control | dose: 80.0 mg/kg/injection, schedule: Q01DX010 (ip), vehicle: saline 98 % of control and 104 % of control | dose: 81.0 mg/kg/injection, schedule: Q01DX Z (ip), vehicle: carboxymethylcellulose (CMC) 96 % of control and 104 % of control | [13] 98 % of control and 102 % of control | dose: 200.0 mg/kg/injection, schedule: Q01DX001 (ip), vehicle: saline 104 % of control

CCOC(=O)CC1(C)NC(=O)NC1=O (stereo unspecified)
inactive: dose: 100.0 mg/kg/injection, schedule: Q01DX009 (ip), vehicle: saline 104 % of control | dose: 200.0 mg/kg/injection, schedule: Q01DX009 (ip), vehicle: saline 90 % of control | dose: 400.0 mg/kg/injection, schedule: Q01DX009 (ip), vehicle: saline 98 % of control

CCN(CC)CCNC(C)=O
inactive: [3] 104 % of control | dose: 200.0 mg/kg/injection, schedule: Q04DX003 (ip), vehicle: saline 101 % of control | dose: 400.0 mg/kg/injection, schedule: Q04DX003 (ip), vehicle: saline 97 % of control

Nc1ccc(Nc2cc(S(=O)(=O)O)c(N)c3c2C(=O)c2ccccc2C3=O)cc1
inactive: [13] 97 % of control | dose: 400.0 mg/kg/injection, schedule: Q01DX001 (ip), vehicle: saline 93 % of control

O=C(Nc1ccc(Br)cc1)Oc1ccc(Nc2ccccc2)cc1
inactive: [4] 98 % of control | [6] 89 % of control | [8] 98 % of control

CC(=O)OC1CCC2(C)C(CCC3C2CCC2(C)C3C(c3ccccc3Cl)C3C=NN(c4ccccc4)C32C(=O)c2ccccc2)C1 (stereo unspecified)
inactive: dose: 25.0 mg/kg/injection, schedule: Q04DX002 (ip), vehicle: Klucel (hydroxypropylcellulose) (HPC) 97 % of control | dose: 50.0 mg/kg/injection, schedule: Q04DX002 (ip), vehicle: Klucel (hydroxypropylcellulose) (HPC) 94 % of control | [2] 94 % of control

O=c1cc(N2CCOCC2)nc2ccccn12
inactive: [10] 100 % of control | [11] 96 % of control | [12] 102 % of control
